Measured values taken from PMC4893628, “Chalcone-based Selective Inhibitors of a C4 Plant Key Enzyme as Novel Potential Herbicides” (Scientific Reports, 2016).
Where two headings read alike, the source gives them in different places.

What was measured:
Format in all cases: cell-based
[1] = tested on: Bacillus subtilis 168; test: Bacterial growth in microscale cultivation, B. subtilis; settings: relative to control
Method: (§1) The following bacteria were cultivated in the presence of trans-chalcone derived inhibitors: Corynebacterium glutamicum ATCC13032[43], Escherichia coli K-12 MG1655[44], Pseudomonas putida KT2440[45], and Bacillus subtilis 168[46]. The growth of these bacteria was monitored in flower-well plates shaken at 1200 rpm as backscatter at 620 nm (gain 20) using a BioLector® microscale cultivation system (m2p labs, Baesweiler, Germany). For further experimental details please refer to the Supplementary Information.
(§2) medium or the appropriate minimal medium and shaken at 140 rpm overnight. For inoculation of
(§3) the main culture, cells equivalent to an optical density at 600 nm of 0.5 (C. glutamicum, E. coli,
(§4) and P. putida) or 0.25 (B. subtilis) in 800 µL medium were washed and resuspended in fresh
(§5) media. Inhibitor substances were dissolved in DMSO and added to the media to a final
(§6) Since the least polar trans-chalcone and 2’-hydroxychalcone precipitated in the growth media at
(§7) the highest concentrations, the maximal concentration of these compounds was reduced to 400
(§8) µM and 100 µM, respectively. The final backscatter at 620 nm, the growth rate (h-1), and the
(§9) duration of the lag phase of all cultures were determined in a BioLector microscale cultivation
(§10) system in comparison to negative controls supplemented with the solvent DMSO. A longer lag

[2] = tested on: Pseudomonas putida KT2440; test: Bacterial growth in microscale cultivation, P. putida; settings: relative to control; for activity at 4 µM / activity at 40 µM / activity at 400 µM: Pseudomonas putida
Method: as §1, §2, §3, §4, §5, §6, §7, §8, §9, §10

[3] = tested on: Escherichia coli K-12 MG1655; test: Bacterial growth in microscale cultivation, E. coli; settings: relative to control; for activity at 4 µM / activity at 40 µM / activity at 400 µM: Escherichia coli
Method: as §1, §2, §3, §4, §5, §6, §7, §8, §9, §10

[4] = tested on: Corynebacterium glutamicum ATCC13032; test: Bacterial growth in microscale cultivation, C. glutamicum; settings: relative to control; for activity at 4 µM / activity at 40 µM / activity at 120 µM / activity at 400 µM: Corynebacterium glutamicum
Method: as §1, §2, §3, §4, §5, §6, §7, §8, §9, §10

O=C(/C=C/c1ccc(O)cc1)c1ccccc1O [Compound 3, 2′,4-Dihydroxychalcone]
activity at 4 µM ([1]; Bacillus subtilis, 168, complex medium, 4 µM, read-out: Final Backscatter): 95.2%
activity at 4 µM ([1]; Bacillus subtilis, 168, complex medium, 4 µM, read-out: Growth rate): 99.5%
activity at 40 µM ([1]; Bacillus subtilis, 168, complex medium, 40 µM, read-out: Final Backscatter): 97.1%
activity at 40 µM ([1]; Bacillus subtilis, 168, complex medium, 40 µM, read-out: Growth rate): 108%
activity at 120 µM ([1]; Bacillus subtilis, 168, complex medium, 120 µM, read-out: Final Backscatter): 102%
activity at 120 µM ([1]; Bacillus subtilis, 168, complex medium, 120 µM, read-out: Growth rate): 114%
activity at 400 µM ([1]; Bacillus subtilis, 168, complex medium, 400 µM, read-out: Final Backscatter): 91.6%
activity at 400 µM ([1]; Bacillus subtilis, 168, complex medium, 400 µM, read-out: Growth rate): 92.8%
activity at 4 µM ([1]; Bacillus subtilis, 168, minimal medium, 4 µM, read-out: Final Backscatter): 101%
activity at 4 µM ([1]; Bacillus subtilis, 168, minimal medium, 4 µM, read-out: Growth rate): 130%
activity at 40 µM ([1]; Bacillus subtilis, 168, minimal medium, 40 µM, read-out: Final Backscatter): 99.1%
activity at 40 µM ([1]; Bacillus subtilis, 168, minimal medium, 40 µM, read-out: Growth rate): 119%
activity at 120 µM ([1]; Bacillus subtilis, 168, minimal medium, 120 µM, read-out: Final Backscatter): 100%
activity at 120 µM ([1]; Bacillus subtilis, 168, minimal medium, 120 µM, read-out: Growth rate): 115%
activity at 400 µM ([1]; Bacillus subtilis, 168, minimal medium, 400 µM, read-out: Final Backscatter): 102%
activity at 400 µM ([1]; Bacillus subtilis, 168, minimal medium, 400 µM, read-out: Growth rate): 113%
Lag Phase ([1]; complex medium, 4 µM): 105,7%
Lag Phase ([1]; complex medium, 40 µM): 105,7%
Lag Phase ([1]; complex medium, 120 µM): 125,5%
Lag Phase ([1]; complex medium, 400 µM): 151,3%
Lag Phase ([1]; minimal medium, 4 µM): 99,0%
Lag Phase ([1]; minimal medium, 40 µM): 101,0%
Lag Phase ([1]; minimal medium, 120 µM): 111,3%
Lag Phase ([1]; minimal medium, 400 µM): 151,4%
activity at 4 µM ([2]; KT2440, complex medium, 4 µM, read-out: Final Backscatter): 99.6%
activity at 4 µM ([2]; KT2440, complex medium, 4 µM, read-out: Growth rate): 103%
activity at 40 µM ([2]; KT2440, complex medium, 40 µM, read-out: Final Backscatter): 103%
activity at 40 µM ([2]; KT2440, complex medium, 40 µM, read-out: Growth rate): 106%
activity at 400 µM ([2]; KT2440, complex medium, 400 µM, read-out: Final Backscatter): 99.5%
activity at 400 µM ([2]; KT2440, complex medium, 400 µM, read-out: Growth rate): 108%
activity at 4 µM ([2]; KT2440, minimal medium, 4 µM, read-out: Final Backscatter): 97.4%
activity at 4 µM ([2]; KT2440, minimal medium, 4 µM, read-out: Growth rate): 95.3%
activity at 40 µM ([2]; KT2440, minimal medium, 40 µM, read-out: Final Backscatter): 101%
activity at 40 µM ([2]; KT2440, minimal medium, 40 µM, read-out: Growth rate): 97.1%
activity at 400 µM ([2]; KT2440, minimal medium, 400 µM, read-out: Final Backscatter): 110%
activity at 400 µM ([2]; KT2440, minimal medium, 400 µM, read-out: Growth rate): 106%
Lag Phase ([2]; complex medium, 4 µM): 97,7%
Lag Phase ([2]; complex medium, 40 µM): 98,5%
Lag Phase ([2]; complex medium, 400 µM): 98,5%
Lag Phase ([2]; minimal medium, 4 µM): 102,8%
Lag Phase ([2]; minimal medium, 40 µM): 101,6%
Lag Phase ([2]; minimal medium, 400 µM): 103,2%
activity at 4 µM ([3]; MG1655, complex medium, 4 µM, read-out: Final Backscatter): 101%
activity at 4 µM ([3]; MG1655, complex medium, 4 µM, read-out: Growth rate): 88.3%
activity at 40 µM ([3]; MG1655, complex medium, 40 µM, read-out: Final Backscatter): 102%
activity at 40 µM ([3]; MG1655, complex medium, 40 µM, read-out: Growth rate): 95%
activity at 400 µM ([3]; MG1655, complex medium, 400 µM, read-out: Growth rate): 99.2%
activity at 4 µM ([3]; MG1655, minimal medium, 4 µM, read-out: Final Backscatter): 100%
activity at 4 µM ([3]; MG1655, minimal medium, 4 µM, read-out: Growth rate): 106%
activity at 40 µM ([3]; MG1655, minimal medium, 40 µM, read-out: Final Backscatter): 99.1%
activity at 40 µM ([3]; MG1655, minimal medium, 40 µM, read-out: Growth rate): 95.3%
activity at 400 µM ([3]; MG1655, minimal medium, 400 µM, read-out: Final Backscatter): 101%
activity at 400 µM ([3]; MG1655, minimal medium, 400 µM, read-out: Growth rate): 108%
Lag Phase ([3]; complex medium, 4 µM): 101,4%
Lag Phase ([3]; complex medium, 40 µM): 102,1%
Lag Phase ([3]; complex medium, 400 µM): 97,8%
Lag Phase ([3]; minimal medium, 4 µM): 99,3%
Lag Phase ([3]; minimal medium, 40 µM): 100,0%
Lag Phase ([3]; minimal medium, 400 µM): 98,6%
activity at 4 µM ([4]; ATCC13032, complex medium, 4 µM, read-out: Final Backscatter): 100%
activity at 4 µM ([4]; ATCC13032, complex medium, 4 µM, read-out: Growth rate): 101%
activity at 40 µM ([4]; ATCC13032, complex medium, 40 µM, read-out: Final Backscatter): 103%
activity at 40 µM ([4]; ATCC13032, complex medium, 40 µM, read-out: Growth rate): 99.1%
activity at 120 µM ([4]; ATCC13032, complex medium, 120 µM, read-out: Final Backscatter): 111%
activity at 120 µM ([4]; ATCC13032, complex medium, 120 µM, read-out: Growth rate): 107%
activity at 400 µM ([4]; ATCC13032, complex medium, 400 µM, read-out: Final Backscatter): 112%
activity at 400 µM ([4]; ATCC13032, complex medium, 400 µM, read-out: Growth rate): 93.9%
activity at 4 µM ([4]; ATCC13032, minimal medium, 4 µM, read-out: Final Backscatter): 102%
activity at 4 µM ([4]; ATCC13032, minimal medium, 4 µM, read-out: Growth rate): 99.6%
activity at 40 µM ([4]; ATCC13032, minimal medium, 40 µM, read-out: Final Backscatter): 103%
activity at 40 µM ([4]; ATCC13032, minimal medium, 40 µM, read-out: Growth rate): 99.5%
activity at 120 µM ([4]; ATCC13032, minimal medium, 120 µM, read-out: Final Backscatter): 102%
activity at 120 µM ([4]; ATCC13032, minimal medium, 120 µM, read-out: Growth rate): 96.7%
activity at 400 µM ([4]; ATCC13032, minimal medium, 400 µM, read-out: Final Backscatter): 106%
activity at 400 µM ([4]; ATCC13032, minimal medium, 400 µM, read-out: Growth rate): 81.2%
Lag Phase ([4]; complex medium, 4 µM): 93,2%
Lag Phase ([4]; complex medium, 40 µM): 93,8%
Lag Phase ([4]; complex medium, 120 µM): 100,5%
Lag Phase ([4]; complex medium, 400 µM): 118,1%
Lag Phase ([4]; minimal medium, 4 µM): 100,0%
Lag Phase ([4]; minimal medium, 40 µM): 97,3%
Lag Phase ([4]; minimal medium, 120 µM): 107,7%
Lag Phase ([4]; minimal medium, 400 µM): 139,3%
